Laboratory results from US12685312B2, “Sulfonamide apyrase inhibitors” (Texas Crop Science, Inc., priority 2022, dated 2026).

Key:
[1] = tested on: apyrase; experiment: Screen for apyrase inhibitors (Method 1, in vitro phosphate-release absorbance assay); format: biochemical; conditions: inhibitor conc at 1 mM stock, 1 hr room temperature, absorbance 630 nm; rounded average of two assay results
Outline: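 Phosphate-release colorimetric assay (Windsor method) in 60 mM Hepes, 3 mM MgCl2, 3 mM CaCl2, 3 mM ATP, pH 6.5, with compound or DMSO control added. Released phosphate developed with ammonium molybdate and ascorbic acid/TCA, then stopped with citrate/acetic acid.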

[2] = tested on: Zymoseptoria tritici on wheat; experiment: Greenhouse crop test (Method 3), Zymoseptoria tritici on wheat; format: in vivo; conditions: for enhancement of Imtrex over Imtrex alone: Imtrex 0.02 L/ha
Experimental: (§1) Method 3: Greenhouse Crop Tests
In this method, exemplary compounds were evaluated for their ability to control Zymoseptoria tritici on wheat, Botrytis cinerea on tomatoes, Asian Soya Rust (Phakopsora pachyrhizi) on soybean, and Brown Rust (Puccinia recondita) on wheat, in a controlled greenhouse environment in combination with one of four fungicides, Amistar, Imtrex, Proline or Balaya. In these studies, soybean cultivar Siverka, tomato (Money maker) and wheat plants (JB Diego) were used. Seeds were sown in 9 cm diameter pots to a depth of 1 to 2 cm using Petersfield potting compost (75% medium grade peat, 12% screened sterilized loam, 3% medium grade vermiculite, 10% grit (5 mm screened, lime free), 1.5 kg PG mix per m3, lime to pH5.5-6.0 and wetting agent (Vitax Ultrawet 200 ml per m3) and germinated/grown at 23 C under a 16 h day/8 h night light regime. Plants were treated two to three weeks after sowing when they were at the BBCH 11 growth stage (first pair of true leaves (unifoliate) unfolded. A track sprayer was used to treat the plants with the mixture of commercial fungicide and test compound using a water volume of 200 L/ha. Plants were inoculated with the appropriate fungi (pathogen) 24 hours after treatment. Fungal pathogens used were Botrytis cinerea (Grey mold on tomato plants), Zymoseptoria tritici (Septoria leaf blotch on wheat plants), Puccinia triticina (Brown rust on wheat plants) and Phakopsora pachyrhizi (Asian soy rust on soybean plants). Four replicates were used for each combination of fungicide, pathogen and test compound. Each plant was evaluated once the disease symptoms were fully expressed between seven to twenty days (depending on the pathogen) for % control of the disease. Appropriate controls were used for all experiments, including an ‘inoculation check’ wherein plants were inoculated with their specific pathogen to assess disease levels. Also, each commercial fungicide was tested on its own as a part of each treatment, this being benchmark against which the experimental compounds were evaluated. […] That is, the present compounds, although not fungicidal by themselves, enhance the activity of fungicides, thus the enhancer compounds work synergistically in combination with fungicides to control disease.
In these studies the fungicide was applied at the following rates

[3] = tested on: Asian Soya Rust (Phakopsora pachyrhizi) on soybean; experiment: Greenhouse crop test (Method 3), Asian Soya Rust on soybean; format: in vivo; conditions: Proline 0.15 L/ha
Experimental: as §1
(§2) In this method, exemplary compounds were evaluated for their ability to control Zymoseptoria tritici on wheat, Botrytis cinerea on tomatoes, Asian Soya Rust (Phakopsora pachyrhizi) on soybean, and Brown Rust (Puccinia recondita) on wheat, in a controlled greenhouse environment in combination with one of four fungicides, Amistar, Imtrex, Proline or Balaya. In these studies, soybean cultivar Siverka, tomato (Money maker) and wheat plants (JB Diego) were used. […] Each plant was evaluated once the disease symptoms were fully expressed between seven to twenty days (depending on the pathogen) for % control of the disease. […] Also, each commercial fungicide was tested on its own as a part of each treatment, this being benchmark against which the experimental compounds were evaluated. […]

[4] = tested on: plant pathogenic fungi (Zymoseptoria tritici strains, Microdochium nivale); experiment: In vitro combination assay (Method 2), overall comparison with Roux Compound 13; format: cell-based; conditions: azoxystrobin, fluxapyroxad, desthio prothioconazole; three fungal strains
Experimental: (§3) Method 2: In Vitro Assessment of Combination Activity
(§4) Selected compounds were assessed in combination with fungicides against a range of commercially important plant pathogenic fungi.
(§5) The test was conducted as follows. A fungicide was applied to a fungal plant pathogen at a rate slightly below that at which it gave any control, in combination with a suitable dose of the test compound. The test compound was recorded as active if control of the pathogen was observed.
(§6) In more detail, the test was conducted as follows. For each combination of fungicide, pathogen and test compound, the following wells were used. Well 1 contained a fungal pathogen growing on agar, and a fungicide at a rate just below that at which it gave any control of the pathogen. Well 2 was the same as Well 1, except that the test compound was also added at Rate 1. Well 3 was the same as Well 2, except that the test compound was added at Rate 2, where Rate 2 was higher than Rate 1. Finally, as a benchmark, Well 4 was the same as Well 1, except that it contained the fungicide at a higher rate, at which it gave partial control of the pathogen. Each of the Wells 1 to 4 were run in duplicate, giving a total of 8 wells for each combination of fungicide, pathogen and test compound. For each well, after a suitable period of incubation, a visual assessment of the % control of the pathogen by the fungicide was made.
(§7) The following fungicides were used in this assay: azoxystrobin, fluxapyroxad, and desthio prothioconazole. The following fungal pathogens were used in this assay: First, a strain of Zymoseptoria tritici with a reduced susceptibility to strobilurin fungicides; second a strain of Zymoseptoria tritici with a reduced susceptibility to SDHI fungicides (i.e., those that inhibit succinate dehydrogenase); and third, Microdochium nivale.

[5] = tested on: Botrytis cinerea on tomatoes; experiment: Greenhouse crop test (Method 3), Botrytis cinerea on tomatoes; format: in vivo; conditions: Botrytis cinerea on tomato, Imtrex 0.005 L/ha
Experimental: as §1
In this method, exemplary compounds were evaluated for their ability to control Zymoseptoria tritici on wheat, Botrytis cinerea on tomatoes, Asian Soya Rust (Phakopsora pachyrhizi) on soybean, and Brown Rust (Puccinia recondita) on wheat, in a controlled greenhouse environment in combination with one of four fungicides, Amistar, Imtrex, Proline or Balaya. In these studies, soybean cultivar Siverka, tomato (Money maker) and wheat plants (JB Diego) were used. Seeds were sown in 9 cm diameter pots to a depth of 1 to 2 cm using Petersfield potting compost (75% medium grade peat, 12% screened sterilized loam, 3% medium grade vermiculite, 10% grit (5 mm screened, lime free), 1.5 kg PG mix per m3, lime to pH5.5-6.0 and wetting agent (Vitax Ultrawet 200 ml per m3) and germinated/grown at 23 C under a 16 h day/8 h night light regime. Plants were treated two to three weeks after sowing when they were at the BBCH 11 growth stage (first pair of true leaves (unifoliate) unfolded. A track sprayer was used to treat the plants with the mixture of commercial fungicide and test compound using a water volume of 200 L/ha. Plants were inoculated with the appropriate fungi (pathogen) 24 hours after treatment. Fungal pathogens used were Botrytis cinerea (Grey mold on tomato plants), Zymoseptoria tritici (Septoria leaf blotch on wheat plants), Puccinia triticina (Brown rust on wheat plants) and Phakopsora pachyrhizi (Asian soy rust on soybean plants). Four replicates were used for each combination of fungicide, pathogen and test compound. Each plant was evaluated once the disease symptoms were fully expressed between seven to twenty days (depending on the pathogen) for % control of the disease. Appropriate controls were used for all experiments, including an ‘inoculation check’ wherein plants were inoculated with their specific pathogen to assess disease levels. Also, each commercial fungicide was tested on its own as a part of each treatment, this being benchmark against which the experimental compounds were evaluated. […]

[6] = tested on: Microdochium nivale; experiment: In vitro assessment of combination activity with fungicides (Method 2); format: cell-based; conditions: fungicide at a rate just below that giving any control; visual % control;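 also: scored as inactive active or highly active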
Experimental: as §3, §4, §5, §6, §7

[7] = tested on: Zymoseptoria tritici with a reduced susceptibility to strobilurin fungicides; experiment: as above; format: cell-based; conditions: fungicide at a rate just below that giving any control; visual % control;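 also: scored as inactive active or highly active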
Experimental: as §3, §4, §5, §6, §7

[8] = tested on: Zymoseptoria tritici with a reduced susceptibility to SDHI fungicides; experiment: as above; format: cell-based; conditions: fungicide at a rate just below that giving any control; visual % control;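 also: scored as inactive active or highly active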
Experimental: as §3, §4, §5, §6, §7

[9] = tested on: Brown Rust (Puccinia recondita) on wheat; experiment: Greenhouse crop test (Method 3), Brown Rust on wheat; format: in vivo; conditions: Imtrex 0.45 L/ha
Experimental: as §1, §2

SMILES	% Inhibition of Apyrase [1] [%]	enhancer activity in the combination assay compared with Roux Compound 13 [4]	further results
O=C(Nc1ccc2c(c1)OCO2)c1ccccc1NS(=O)(=O)c1cccc(C(F)(F)F)c1 [I-213, N-(benzo[d][1,3]dioxol-5-yl)-2-((3-(trifluoromethyl)phenyl)sulfonamido) benzamide]	71	superior enhancer activity than Roux Compound 13	enhancement in combination with Imtrex over Imtrex alone [5]: about 30%
Cc1ccc(NS(=O)(=O)c2ccc(C(=O)N3CCc4ccccc43)cc2)cc1 [I-385, 4-(indoline-1-carbonyl)-N-(p-tolyl)benzenesulfonamide]	65		enhancement of Imtrex over Imtrex alone [2]: greater than 40%
O=C(Nc1ccc2c(c1)OCO2)c1ccc(S(=O)(=O)Nc2ccccc2Cl)cc1 [I-388, N-(benzo[d][1,3]dioxol-5-yl)-4-(N-(2-chlorophenyl)sulfamoyl)benzamide]	63		enhancement of Balaya ([2]; Balaya 0.0015 L/ha): greater than 45%
Cc1ccc(NC(=O)c2cccc(S(=O)(=O)Nc3cccc(Cl)c3)c2)nc1 [I-595, 3-(N-(3-chlorophenyl)sulfamoyl)-N-(5-methylpyridin-2-yl)benzamide]	36		additional Brown Rust control benefit in combination with Imtrex over Imtrex alone [9]: greater than 40%
O=C(Nc1ccccc1S(=O)(=O)N1CCCC1)c1cccc(C(F)(F)F)c1 [I-826, N-(2-(pyrrolidin-1-ylsulfonyl)phenyl)-3-(trifluoromethyl)benzamide]	40		additional Brown Rust control benefit in combination with Imtrex over Imtrex alone [9]: greater than 50%

Second part, led by results:

% Inhibition of Apyrase [1] [%]	SMILES	enhancer activity in the combination assay compared with Roux Compound 13 [4]	further results
79	O=C1CSc2ccc(C(=O)Nc3cccc(S(=O)(=O)Nc4ccc(Br)cc4)c3)cc2N1 [I-198, N-(3-(N-(4-bromophenyl)sulfamoyl)phenyl)-3-oxo-3,4-dihydro-2H-benzo[b][1,4]thiazine-6-carboxamide]	superior enhancer activity than Roux Compound 13	enhancement of Imtrex over Imtrex alone [2]: about 30%; enhancement of the activity of Proline [3]: over 90%
71	O=C(Nc1ccc(Br)cc1)c1cccc(S(=O)(=O)Nc2ccc(F)cc2)c1 [I-222, N-(4-bromophenyl)-3-(N-(4-fluorophenyl)sulfamoyl)benzamide]	superior enhancer activity than Roux Compound 13	enhancement of the activity of Proline [3]: greater than 60%
66	O=C(Nc1cccc(NS(=O)(=O)c2ccc(Br)cc2Cl)c1)c1ccco1 [I-234, N-(3-((4-bromo-2-chlorophenyl)sulfonamido)phenyl)furan-2-carboxamide]	superior enhancer activity than Roux Compound 13	enhancement of activity of desthio prothioconazole [6]: enhancing fungicidal activity; enhancement of activity of fluxapyroxad [6]: enhancing fungicidal activity; enhancement of activity of desthio prothioconazole [7]: enhancing fungicidal activity; enhancement of activity of desthio prothioconazole [8]: enhancing fungicidal activity; enhancement of activity of fluxapyroxad [8]: enhancing fungicidal activity
30	Cc1ccc(C(=O)Nc2ccccc2S(=O)(=O)Nc2ccccc2)cc1F [I-236, 3-fluoro-4-methyl-N-(2-(N-phenylsulfamoyl)phenyl)benzamide]	superior enhancer activity than Roux Compound 13	enhancement in combination with Imtrex over Imtrex alone [5]: about 30%
73	O=C(Nc1cccc(-c2ccn[nH]2)c1)c1cccc(S(=O)(=O)Nc2ccc(Br)cc2)c1 [I-239, N-(3-(1H-pyrazol-5-yl)phenyl)-3-(N-(4-bromophenyl)sulfamoyl)benzamide]	superior enhancer activity than Roux Compound 13	enhancement of Imtrex over Imtrex alone [2]: about 30%
65	NS(=O)(=O)c1cccc(NC(=O)c2ccc(S(=O)(=O)Nc3ccc(Cl)cc3)cc2)c1 [I-387, 4-(N-(4-chlorophenyl)sulfamoyl)-N-(3-sulfamoylphenyl)benzamide]		enhancement in combination with Imtrex over Imtrex alone [5]: about 30%
